Test results taken from patent US20220354844A1, “METHODS OF TREATING METABOLIC DISEASES WITH FUSED BICYCLIC PYRAZOLES” (Belite Bio, Inc, priority 2017, published 2022).
“And” between values parts separate entries of the source, which are not always exact repeats. Equal entries are not always repeated.

What was measured:
[1] = Compound 1 single dose non-human primate PK study; assay type: in vivo, Cynomolgus Macaques; settings: NHP; for Vd: read-out: Vss
Description: A pharmacokinetic study of Compound 1 following a single intravenous or oral dose administration to non-human primates (Cynomolgus Macaques) was conducted, the results of which are found in Table 2 and FIGS. 1-8.

[2] = Compound 1 single dose rat PK study; assay type: in vivo, male Sprague Dawley rats; settings: for Vd: read-out: Vss
Description: A pharmacokinetic study of Compound 1 following a single intravenous or oral dose administration to male Sprague Dawley rats was conducted, the results of which are found in Table 3 and FIGS. 9-14.

[3] = Compound 1 single dose mouse PK study; assay type: in vivo, male CD-1 mice
Description: A pharmacokinetic study of Compound 1 following a single intravenous or oral dose administration to male CD-1 mice was conducted, the results of which are found in Table 4 and FIGS. 15-20.

[4] = system: Subjects with NAFLD or NASH; assay: Treatment of NAFLD and NASH in humans; assay type: in vivo, human; settings: 50 or 100 mg/day for 6 months
Description: Subjects with NAFLD or NASH are treated with doses of either 50 or 100 mg/day of compound 1 or 2 for 6 months. Subjects are permitted their usual other medications (e.g. antidiabetic medications such as metformin or […]) but not glitazones, PPAR agonists, OCA, or similar medications. The subjects are assessed before the study, and at intervals during the study, such as every 4 weeks during the study and 4 weeks after the last dose of compound 1 or 2, for safety and pharmacodynamic evaluations.
MRIs of the subjects' livers are taken every 4 weeks during the study and 4 weeks after completion of compound 1 or 2 dosing, to determine hepatic fat; and liver biopsies are taken before the study (to establish the diagnosis) and 4 weeks after completion of compound 1 or 2 dosing. At each visit, after a 12-hour fast, blood is drawn and urine collected; and a standard metabolic panel, complete blood count, and standard urinalysis are performed. Blood is analyzed for total cholesterol, HDL-C, LDL-C, VLDL-C, TGs, apoB, and liver transaminases. The subjects also maintain health diaries, which are reviewed at each visit.

[5] = single iv dose 1 mg/kg, individual animals, 1 mg/kg
[6] = single po dose 5 mg/kg, individual animals, 5 mg/kg
[7] = cynomolgus monkey, plasma, iv, 1 mg/kg, single iv dose 1 mg/kg, Mean of the 3 animals
[8] = cynomolgus monkey, plasma, iv, 1 mg/kg, single iv dose 1 mg/kg, individual animals
[9] = cynomolgus monkey, plasma, po, 5 mg/kg, single po dose 5 mg/kg, Mean of the 3 animals
[10] = cynomolgus monkey, plasma, po, 5 mg/kg, single po dose 5 mg/kg, individual animals
[11] = male, Sprague Dawley, plasma, iv, 2 mg/kg, single iv dose 2 mg/kg, Mean of the 3 rats
[12] = male, Sprague Dawley, plasma, iv, 2 mg/kg, single iv dose 2 mg/kg, individual rats
[13] = male, Sprague Dawley, plasma, po, 5 mg/kg, single po dose 5 mg/kg, Mean of the 3 rats
[14] = male, Sprague Dawley, plasma, po, 5 mg/kg, single po dose 5 mg/kg, individual rats
[15] = single iv dose 2 mg/kg, individual rats, 2 mg/kg
[16] = single po dose 5 mg/kg, individual rats, 5 mg/kg
[17] = male, CD-1, plasma, single iv dose 2 mg/kg
[18] = male, CD-1, plasma, single po dose 5 mg/kg

AUC inf [1, 5]: 5217 hr.ng/m1 and 3761 hr.ng/m1 | AUCLAST [1, 5]: 5165 ng·h/mL and 3731 ng·h/mL | Cl [1, 5]: 3.2 mL/min/kg and 4.43 mL/min/kg | Cmax [1, 5]: 968 ng/mL and 704 ng/mL | MRT last [1, 5]: 6.8 h and 6.7 h | MRTinf [1, 5]: 7.3 h and 7.1 h | Vss [1, 5]: 1.399 L/kg and 1.886 L/kg | t1/2 [1, 5]: 7.8 h and 7.4 h | F ([1]; single po dose 5 mg/kg, Mean of the 3 animals): 18.7% | AUC inf [1, 6]: 3601 hr.ng/m1 and 3918 hr.ng/m1 | AUCLAST [1, 6]: 3525 ng·h/mL and 3852 ng·h/mL | Cmax [1, 6]: 363 ng/mL and 369 ng/mL | F [1, 6]: 21.6% and 16.5% | MRT last [1, 6]: 10.0 h and 10.3 h | MRTinf [1, 6]: 11.1 h | Tmax [1, 6]: 2 h | t1/2 [1, 6]: 8.7 h and 8.1 h | AUC(0-inf) [1, 7]: 4370 ng·h/mL | AUC(0-t) [1, 7]: 4340 ng·h/mL | MRT inf [1, 7]: 6.9 h | clearance [1, 7]: 3.88 mL/min/kg | half-life [1, 7]: 7.7 h | Tmax ([1]; cynomolgus monkey, plasma, iv, 1 mg/kg, single iv dose 1 mg/kg, Mean of the 3 animals, first plasma collection time listed as Tmax, read-out: Tmax): 0.27 h | Cmax ([1]; cynomolgus monkey, plasma, iv, 1 mg/kg, single iv dose 1 mg/kg, Mean of the 3 animals, read-out: Cmax): 881 ng/mL | MRT last ([1]; cynomolgus monkey, plasma, iv, 1 mg/kg, single iv dose 1 mg/kg, Mean of the 3 animals, read-out: MRT last): 6.4 h | Vd [1, 7]: 1.6 L/kg | AUC(0-inf) [1, 8]: 4140 ng·h/mL | AUC(0-t) [1, 8]: 4110 ng·h/mL | MRT inf [1, 8]: 6.3 h | clearance [1, 8]: 4.02 mL/min/kg | half-life [1, 8]: 7.8 h | Cmax ([1]; cynomolgus monkey, plasma, iv, 1 mg/kg, single iv dose 1 mg/kg, individual animals, read-out: Cmax): 970 ng/mL | MRT last ([1]; cynomolgus monkey, plasma, iv, 1 mg/kg, single iv dose 1 mg/kg, individual animals, read-out: MRT last): 5.9 h | Vd [1, 8]: 1.52 L/kg | AUC(0-inf) [1, 9]: 4080 ng·h/mL | AUC(0-t) [1, 9]: 3990 ng·h/mL | MRT inf [1, 9]: 11.3 h | half-life [1, 9]: 8.5 h | Cmax ([1]; cynomolgus monkey, plasma, po, 5 mg/kg, single po dose 5 mg/kg, Mean of the 3 animals, read-out: Cmax): 406 ng/mL | MRT last ([1]; cynomolgus monkey, plasma, po, 5 mg/kg, single po dose 5 mg/kg, Mean of the 3 animals, read-out: MRT last): 10.2 h | Tmax ([1]; cynomolgus monkey, plasma, po, 5 mg/kg, single po dose 5 mg/kg, Mean of the 3 animals, read-out: Tmax): 1.67 h | AUC(0-inf) [1, 10]: 4720 ng·h/mL | AUC(0-t) [1, 10]: 4580 ng·h/mL | MRT inf [1, 10]: 11.7 h | half-life [1, 10]: 8.8 h | Cmax ([1]; cynomolgus monkey, plasma, po, 5 mg/kg, single po dose 5 mg/kg, individual animals, read-out: Cmax): 485 ng/mL | MRT last ([1]; cynomolgus monkey, plasma, po, 5 mg/kg, single po dose 5 mg/kg, individual animals, read-out: MRT last): 10.2 h | Tmax ([1]; cynomolgus monkey, plasma, po, 5 mg/kg, single po dose 5 mg/kg, individual animals, read-out: Tmax): 1 h | AUC(0-inf) [2, 11]: 3970 ng·h/mL | AUC(0-t) [2, 11]: 3950 ng·h/mL | MRT inf [2, 11]: 3.3 h | MRT last [2, 11]: 3 h | clearance [2, 11]: 8.68 mL/min/kg | Tmax ([2]; male, Sprague Dawley, plasma, iv, 2 mg/kg, single iv dose 2 mg/kg, Mean of the 3 rats, first plasma collection time listed as Tmax): 0.08 h | Cmax ([2]; male, Sprague Dawley, plasma, iv, 2 mg/kg, single iv dose 2 mg/kg, Mean of the 3 rats, read-out: Cmax): 1870 ng/mL | Vd [2, 11]: 1.68 L/kg | half-life ([2]; male, Sprague Dawley, plasma, iv, 2 mg/kg, single iv dose 2 mg/kg, Mean of the 3 rats, read-out: t1/2 (converted)): 8.5 h | AUC(0-inf) [2, 12]: 3610 ng·h/mL | AUC(0-t) [2, 12]: 3600 ng·h/mL | MRT inf [2, 12]: 3 h | MRT last [2, 12]: 2.8 h | clearance [2, 12]: 9.23 mL/min/kg | Tmax ([2]; male, Sprague Dawley, plasma, iv, 2 mg/kg, single iv dose 2 mg/kg, individual rats, first plasma collection time listed as Tmax): 0.08 h | Cmax ([2]; male, Sprague Dawley, plasma, iv, 2 mg/kg, single iv dose 2 mg/kg, individual rats, read-out: Cmax): 1670 ng/mL | Vd [2, 12]: 1.69 L/kg | half-life ([2]; male, Sprague Dawley, plasma, iv, 2 mg/kg, single iv dose 2 mg/kg, individual rats, read-out: t1/2 (converted)): 8.6 h | AUC(0-inf) [2, 13]: 2680 ng·h/mL | AUC(0-t) [2, 13]: 2640 ng·h/mL | MRT inf [2, 13]: 9.9 h | MRT last [2, 13]: 9 h | Tmax [2, 13]: 1.42 h | Cmax ([2]; male, Sprague Dawley, plasma, po, 5 mg/kg, single po dose 5 mg/kg, Mean of the 3 rats, read-out: Cmax): 390 ng/mL | AUC(0-inf) [2, 14]: 3210 ng·h/mL | AUC(0-t) [2, 14]: 3170 ng·h/mL | MRT inf [2, 14]: 8.7 h | MRT last [2, 14]: 8 h | Cmax ([2]; male, Sprague Dawley, plasma, po, 5 mg/kg, single po dose 5 mg/kg, individual rats, read-out: Cmax): 456 ng/mL | half-life ([2]; male, Sprague Dawley, plasma, po, 5 mg/kg, single po dose 5 mg/kg, individual rats, read-out: t1/2 (converted)): 8.2 h | half-life ([2]; male, Sprague Dawley, plasma, po, 5 mg/kg, t1/2, rat, single po dose 5 mg/kg, Mean of the 3 rats, heading: t1/2): 7.6 h | AUCLAST [2, 15]: 5020 ng·h/mL and 3244 ng·h/mL | AUCinf [2, 15]: 5055 ng·h/mL and 3256 ng·h/mL | Cl [2, 15]: 6.6 mL/min/kg and 10.2 mL/min/kg | Cmax [2, 15]: 2400 ng/mL and 1536 ng/mL | MRTinf [2, 15]: 3.7 h and 3.1 h | MRTlast [2, 15]: 3.2 h and 2.9 h | t1/2 [2, 15]: 11.0 h and 6.0 h | F ([2]; single po dose 5 mg/kg, Mean of the 3 rats): 27.0% | AUCLAST [2, 16]: 2683 ng·h/mL and 2069 ng·h/mL | AUCinf [2, 16]: 2698 ng·h/mL and 2138 ng·h/mL | Cmax [2, 16]: 274 ng/mL and 440 ng/mL | F [2, 16]: 32.3% and 27.2% and 21.5% | MRTinf [2, 16]: 8.2 h and 12.8 h | MRTlast [2, 16]: 11.2 h | t1/2 [2, 16]: 6.2 h and 8.5 h | AUC(0-inf) [3, 17]: 2460 ng·h/mL | AUC(0-t) [3, 17]: 2400 ng·h/mL | MRT inf [3, 17]: 2.5 h | MRT last [3, 17]: 2.2 h | clearance [3, 17]: 13.5 mL/min/kg | half-life [3, 17]: 2.1 h | Cmax ([3]; male, CD-1, plasma, single iv dose 2 mg/kg, maximum observed concentration at first time point): 1460 ng/mL | Vd ([3]; male, CD-1, plasma, single iv dose 2 mg/kg, read-out: Vss): 2.02 L/kg | AUC(0-inf) [3, 18]: 1810 ng·h/mL | AUC(0-t) [3, 18]: 1800 ng·h/mL | Cmax [3, 18]: 278 ng/mL | MRT inf [3, 18]: 5 h | MRT last [3, 18]: 4.9 h | Tmax [3, 18]: 0.25 h | half-life [3, 18]: 2.9 h | Tmax ([3]; male, CD-1, single iv dose 2 mg/kg, first plasma collection time): 0.08 h | F ([3]; single po dose 5 mg/kg): 29.4%
SMILES: CC(=O)N1CCc2c(C(=O)N3CCC(c4ccc(F)c(F)c4C(F)(F)F)CC3)n[nH]c2C1 [Compound 1, 1-(3-(4-(3,4-difluoro-2-(trifluoromethyl)phenyl)piperidine-1-carbonyl)-1,4,5,7-tetrahydro-6H-pyrazolo[3,4-c]pyridin-6-yl)ethan-1-one]
improvement in their disease, as manifested by MRI and liver biopsy [4]: dose-related improvement
